ChEMBL document CHEMBL4373683, “Dual-target inhibitors of mycobacterial aminoacyl-tRNA synthetases among N-benzylidene-N'-thiazol-2-yl-hydrazines” (Medchemcomm, 2019)
Converted amounts (≈) assume the structure as drawn.

Assays:
Leucine--tRNA ligase = molecular target: T1, Leucine--tRNA ligase (Mycobacterium tuberculosis (strain ATCC 25618 / H37Rv), UniProt P9WFV1); assay: (§1) Inhibition of Mycobacterium tuberculosis LeuRS expressed in Escherichia coli Rosetta (DE3) cells incubated for 30 mins followed by incubation with ATP, leucine, tRNA, iPPase for 10 mins and measured after 30 mins by BIOMOL Green reagent based plate reader analysis
T1 sequence (P9WFV1 whole entry): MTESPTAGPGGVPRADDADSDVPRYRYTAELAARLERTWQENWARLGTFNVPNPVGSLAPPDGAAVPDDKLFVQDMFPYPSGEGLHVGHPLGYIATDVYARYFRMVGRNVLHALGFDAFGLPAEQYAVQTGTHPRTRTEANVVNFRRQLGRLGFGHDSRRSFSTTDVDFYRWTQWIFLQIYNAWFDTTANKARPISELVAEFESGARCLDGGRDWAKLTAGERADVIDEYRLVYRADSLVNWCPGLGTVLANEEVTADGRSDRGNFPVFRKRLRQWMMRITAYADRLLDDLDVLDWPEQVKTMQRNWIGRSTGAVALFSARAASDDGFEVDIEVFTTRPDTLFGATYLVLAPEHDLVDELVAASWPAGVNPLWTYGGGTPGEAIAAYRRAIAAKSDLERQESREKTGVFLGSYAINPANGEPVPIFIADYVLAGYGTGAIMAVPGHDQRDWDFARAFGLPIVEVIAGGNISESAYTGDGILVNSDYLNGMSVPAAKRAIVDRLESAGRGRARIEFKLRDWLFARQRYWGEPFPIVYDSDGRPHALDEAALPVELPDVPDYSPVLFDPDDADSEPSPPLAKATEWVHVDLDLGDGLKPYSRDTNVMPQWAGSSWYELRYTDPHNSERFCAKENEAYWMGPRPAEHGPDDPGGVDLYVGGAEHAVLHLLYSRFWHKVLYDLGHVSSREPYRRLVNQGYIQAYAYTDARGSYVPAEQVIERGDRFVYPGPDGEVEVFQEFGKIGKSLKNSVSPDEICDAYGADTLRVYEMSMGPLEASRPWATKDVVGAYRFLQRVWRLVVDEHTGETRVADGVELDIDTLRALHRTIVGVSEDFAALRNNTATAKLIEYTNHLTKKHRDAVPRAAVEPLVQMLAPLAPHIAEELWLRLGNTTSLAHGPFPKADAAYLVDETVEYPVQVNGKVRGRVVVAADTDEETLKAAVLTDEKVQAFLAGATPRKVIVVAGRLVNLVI

[1] = tested on: Mycobacterium tuberculosis; format: functional; settings: H37Rv ATCC 27294, 168 h
[2] = as §1, with “of recombinant” for “of”, “H37Rv C-terminal His6-tagged MetRS” for “LeuRS”, “BL21” for “Rosetta”, “(DE3) Star” for “(DE3)”, “methionine,” for “leucine,”
[3] = tested on: Mycobacterium tuberculosis; format: functional; settings: H37Rv ATCC 27294, 336 h
[4] = tested on: Mycobacterium tuberculosis; format: functional; settings: H37Rv ATCC 27294, 168 h; remark: listed apart in the source
[5] = tested on: Mycobacterium tuberculosis; format: functional; settings: H37Rv ATCC 27294, 168 h; remark: listed apart in the source
[6] = tested on: Mycobacterium tuberculosis; format: functional; settings: H37Rv ATCC 27294, 336 h; remark: listed apart in the source
[7] = tested on: Mycobacterium tuberculosis; format: functional; settings: H37Rv ATCC 27294, 168 h; remark: listed apart in the source
[8] = molecular target: T2, Leucine--tRNA ligase (Mycobacterium tuberculosis (strain ATCC 25618 / H37Rv)) (UniProt P9WFV1); assay: (§2) Inhibition of Mycobacterium tuberculosis LeuRS expressed in Escherichia coli Rosetta (DE3) cells at 100 uM incubated for 30 mins followed by incubation with ATP, leucine, tRNA, iPPase for 10 mins and measured after 30 mins by BIOMOL Green reagent based plate reader analysis relative to control
T2 sequence (whole entry): T1 sequence (P9WFV1 whole entry)

[9] = tested on: Mycobacterium tuberculosis H37Rv; assay: as §2, with “of recombinant” for “of”, “H37Rv C-terminal His6-tagged MetRS” for “LeuRS”, “BL21” for “Rosetta”, “(DE3) Star” for “(DE3)”, “methionine,” for “leucine,”
[10] = tested on: Mycobacterium tuberculosis; format: functional; settings: H37Rv ATCC 27294, 336 h; remark: listed apart in the source
[11] = tested on: Mycobacterium tuberculosis; format: functional; settings: H37Rv ATCC 27294, 336 h; remark: listed apart in the source
[12] = Inhibition of BIOMOL-Green signal at 50 uM in MtbMetRS reaction buffer in presence of 10 uM phosphate standard measured after 30 mins by plate reader analysis
Saccharomyces cerevisiae = assay: Inhibition of yeast inorganic pyrophosphatase assessed as inhibition of BIOMOL-Green signal using inorganic pyrophosphate as substrate at 50 uM incubated for 10 mins in MtbMetRS reaction buffer and measured after 30 mins by BIOMOL-Green reagent based plate reader analysis
[13] = Cytotoxicity against human HEK293 cells assessed as reduction in cell viability incubated for 72 hrs by MTT assay; format: cell-based
[14] = Cytotoxicity against human HepG2 cells assessed as reduction in cell viability incubated for 72 hrs by MTT assay; format: cell-based

O=C(O)c1ccc(/C=N/Nc2nc(-c3ccc(Cl)cc3Cl)cs2)cc1
IC50 (Leucine--tRNA ligase): 27.3 µM | MIC [1]: > 50 µM | IC50 ([2]; read-out: IC50): 22.7 µM | MIC [3]: > 50 µM | MIC [4]: > 50 µM | MIC [5]: > 50 µM | MIC [6]: > 50 µM | MIC [7]: > 50 µM | inhibition [8]: 101% | inhibition [9]: 92% | MIC [10]: > 50 µM | MIC [11]: > 50 µM

Oc1ccccc1/C=N/Nc1nc(-c2ccccc2)cs1
inhibition [8]: 7% | inhibition [9]: 51%

Cc1sc(N/N=C/c2cccc(O)c2)nc1-c1ccccc1
inhibition [12]: < 35% | inhibition (Saccharomyces cerevisiae): < 35% | inhibition [8]: 65% | inhibition [9]: 112%

Cc1csc(N/N=C/c2ccc(C(=O)O)cc2)n1
inhibition [8]: -4%

CCOC(=O)c1sc(N/N=C/c2ccccc2)nc1C
inhibition [8]: 19% | inhibition [9]: 73%

CN(C)c1ccc(/C=N/Nc2nc(-c3ccccc3)cs2)cc1
inhibition [12]: < 35% | inhibition (Saccharomyces cerevisiae): < 35% | inhibition [8]: 65% | inhibition [9]: 123%

Cc1csc(N/N=C/c2ccc([N+](=O)[O-])cc2)n1
inhibition [8]: 20% | inhibition [9]: 92%

COc1ccc(/C=N/Nc2nc(C)cs2)cc1Br
IC50 (Leucine--tRNA ligase): 95 µM | IC50 [2]: Not Active

COc1ccc(/C=N/Nc2nc(C)c(C)s2)cc1
inhibition [8]: 1% | inhibition [9]: 1%

O=[N+]([O-])c1ccccc1/C=N/Nc1nccs1
inhibition [8]: 45% | inhibition [9]: 51%

CCOc1ccc(/C=N/Nc2nc(C)c(C(C)=O)s2)cc1
inhibition [8]: 20% | inhibition [9]: 53%

CCOC(=O)c1sc(N/N=C/c2cccc(O)c2)nc1C
inhibition [8]: 1% | inhibition [9]: 71%

CCOC(=O)c1sc(N/N=C/c2ccc(C(=O)O)cc2)nc1C
inhibition [8]: -7% | inhibition [9]: 6%

COc1ccc(OC)c(/C=N/Nc2nc(-c3cccnc3)cs2)c1
inhibition [8]: 74% | inhibition [9]: 115%

O=[N+]([O-])c1cccc(-c2csc(N/N=C/c3ccccc3Br)n2)c1
IC50 (Leucine--tRNA ligase): 8.9 µM | MIC [1]: ≥ 50 µM | IC50 ([2]; read-out: IC50): 6.5 µM | MIC [3]: > 50 µM | MIC [4]: 37 µM (≈ 14.9 µg/mL) | MIC [5]: > 50 µM | MIC [6]: 50 µM (≈ 20.2 µg/mL) | MIC [7]: 37 µM (≈ 14.9 µg/mL) | inhibition [8]: 80% | inhibition [9]: 93% | MIC [10]: > 50 µM | MIC [11]: > 50 µM

CCOC(=O)c1sc(N/N=C/c2ccccc2C(F)(F)F)nc1C
inhibition [8]: 34% | inhibition [9]: 45%

COc1ccc(/C=N/Nc2nccs2)cc1Br
inhibition [8]: 29% | inhibition [9]: 90%

CCOC(=O)c1sc(N/N=C/c2ccccc2Br)nc1C
inhibition [8]: 67% | inhibition [9]: 99%

COc1cc(/C=N/Nc2nccs2)cc(Br)c1OCc1ccccc1
inhibition [12]: < 35% | inhibition (Saccharomyces cerevisiae): < 35% | inhibition [8]: 55% | inhibition [9]: 106%

O=[N+]([O-])c1cc(/C=N/Nc2nc(-c3ccccc3)cs2)ccc1O
inhibition [12]: < 35% | inhibition (Saccharomyces cerevisiae): < 35% | inhibition [8]: 53% | inhibition [9]: 72%

Brc1ccccc1/C=N/Nc1nc(-c2ccccc2)cs1
IC50 (Leucine--tRNA ligase): 24.1 µM | IC50 ([2]; read-out: IC50): 37.5 µM

Cc1csc(N/N=C/c2cc(Br)ccc2O)n1
inhibition [8]: 39% | inhibition [9]: 113%

COc1cc(/C=N/Nc2nccs2)ccc1OCc1ccccc1Cl
inhibition [12]: < 35% | inhibition (Saccharomyces cerevisiae): < 35% | inhibition [8]: 64% | inhibition [9]: 102%

O=[N+]([O-])c1cccc(-c2csc(N/N=C/c3cccc(Oc4ccccc4)c3)n2)c1
inhibition [8]: 11% | inhibition [9]: 65%

CCCCCCOc1ccc(/C=N/Nc2nccs2)cc1OC
inhibition [8]: 47% | inhibition [9]: 62%

Cc1csc(N/N=C/c2ccccc2Br)n1
IC50 (Leucine--tRNA ligase): 38.4 µM | IC50 ([2]; read-out: IC50): 123 µM

COc1cc(/C=N/Nc2nc(C)c(C(C)=O)s2)ccc1OCc1ccccc1Cl
inhibition [12]: < 35% | inhibition (Saccharomyces cerevisiae): < 35% | inhibition [8]: 87% | inhibition [9]: 113%

COc1cc(/C=N/Nc2nc(-c3ccc([N+](=O)[O-])cc3)cs2)cc([N+](=O)[O-])c1O
IC50 (Leucine--tRNA ligase): 5.8 µM | MIC [1]: 50 µM (≈ 20.8 µg/mL) | IC50 ([2]; read-out: IC50): 4.2 µM | MIC [3]: > 50 µM | MIC [4]: ≥ 50 µM | MIC [5]: 50 µM (≈ 20.8 µg/mL) | MIC [6]: > 50 µM | MIC [7]: > 50 µM | inhibition [8]: 103% | inhibition [9]: 94% | MIC [10]: ≥ 50 µM | MIC [11]: > 50 µM

COc1ccc(/C=N/Nc2nc(-c3ccc(F)cc3)cs2)cc1Br
IC50 (Leucine--tRNA ligase): 12.5 µM | MIC [1]: 19 µM (≈ 7.72 µg/mL) | IC50 ([2]; read-out: IC50): 10.7 µM | MIC [3]: 37 µM (≈ 15 µg/mL) | MIC [4]: 9.4 µM (≈ 3.82 µg/mL) | MIC [5]: 1.56 µM (≈ 0.634 µg/mL) | MIC [6]: 25 µM (≈ 10.2 µg/mL) | CC50 at 72 h [13]: > 100 µM | MIC [7]: 0.78 µM (≈ 0.317 µg/mL) | inhibition [8]: 109% | inhibition [9]: 121% | MIC [10]: 2.3 µM (≈ 0.934 µg/mL) | CC50 at 72 h [14]: > 100 µM | MIC [11]: 2.3 µM (≈ 0.934 µg/mL)

CCc1ccc(/C=N/Nc2nc(-c3cccc([N+](=O)[O-])c3)cs2)cc1
inhibition [8]: 3% | inhibition [9]: 27%

CCOC(=O)c1sc(N/N=C/c2ccc(Br)cc2)nc1C
inhibition [12]: < 35% | inhibition (Saccharomyces cerevisiae): < 35% | inhibition [8]: 39% | inhibition [9]: 111%

CCOC(=O)c1sc(N/N=C/c2cc(Br)c(O)c(Br)c2)nc1C
inhibition [8]: 55% | inhibition [9]: 51%

CCOC(=O)c1sc(N/N=C/c2cc(Br)c(O)c(OC)c2)nc1C
inhibition [8]: 54% | inhibition [9]: 94%

NNC(=O)c1ccncc1 [ISONIAZID]
MIC [1]: 0.6 µM (≈ 0.0823 µg/mL) | MIC [3]: 0.6 µM (≈ 0.0823 µg/mL) | MIC [4]: 0.39 µM (≈ 0.0535 µg/mL) | MIC [5]: 0.1 µM (≈ 0.0137 µg/mL) | MIC [6]: 0.39 µM (≈ 0.0535 µg/mL) | MIC [7]: 0.07 µM (≈ 0.0096 µg/mL) | MIC [10]: 0.3 µM (≈ 0.0411 µg/mL) | MIC [11]: 0.1 µM (≈ 0.0137 µg/mL)

COc1cc(/C=N/Nc2nccs2)ccc1OC(=O)c1ccc(Cl)cc1Cl
inhibition [12]: < 35% | inhibition (Saccharomyces cerevisiae): < 35% | inhibition [8]: 73% | inhibition [9]: 142%

COC(=O)c1sc(N/N=C/c2ccc([N+](=O)[O-])cc2)nc1C
inhibition [8]: 88% | inhibition [9]: 75%

COc1cc(/C=N/Nc2nc(-c3ccc(Br)cc3)cs2)cc([N+](=O)[O-])c1O
inhibition [12]: < 35% | inhibition (Saccharomyces cerevisiae): < 35% | inhibition [8]: 113% | inhibition [9]: 110%

COc1cccc(/C=N/Nc2nc(C)cs2)c1OC
inhibition [8]: 17% | inhibition [9]: 25%

COC(=O)c1sc(N/N=C/c2ccc(Br)cc2)nc1C
inhibition [12]: < 35% | inhibition (Saccharomyces cerevisiae): < 35% | inhibition [8]: 46% | inhibition [9]: 88%

CCOC(=O)Cc1csc(N/N=C/c2ccc(C(=O)O)cc2)n1
inhibition [8]: 12% | inhibition [9]: 22%

COC(=O)c1sc(N/N=C/c2ccc(C(=O)O)cc2)nc1C
inhibition [8]: 12%
